Laboratory results from patent publication US20260274856A1, “COVALENT CEREBLON LIGANDS” (C4 THERAPEUTICS, INC., priority 2023, published 2026).
Where two headings read alike, the source gives them in different places.

Experiments:
[1] = target: mutant BRAF V600E (Homo sapiens, UniProt P15056, V600E); experiment: BRAF V600E HiBiT Degradation Assay in A375.10 cells; conditions: for HiBIT-Degradation A375.10 BRAF 24 hours IP nM / DC50: A375.10 cells, 24 hours; for HiBIT-Degradation A375.10 BRAF 24 hours IP nM: inflection point of the dose-response curve; for DC50: read-out: HiBIT-Degradation A375.10 BRAF 24 hours DC50 nM; for Emax: read-out: HiBIT-Degradation A375.10 BRAF 24 hours Emax
[2] = target: cellular cereblon (CRBN) (Homo sapiens, UniProt Q96SW2); experiment: NanoBRET Target Engagement Assay, competition with pomalidomide tracer in 293T.116 cells; conditions: for NanoBRET TE 293T.116 CRBN 2 hours IP nM / NanoBRET TE 293T.116 CRBN 6 hours IP nM / NanoBRET TE 293T.116 CRBN 24 hours IP nM / IC50: 293T.116 cells
[3] = NanoBRET TE 293T.116 CRBN 2 hours IC50 nM, 2 hours incubation
[4] = NanoBRET TE 293T.116 CRBN 6 hours IC50 nM, 6 hours incubation
[5] = NanoBRET TE 293T.116 CRBN 24 hours IC50 nM, 24 hours incubation
[6] = read-out: NanoBRET TE 293T.116 CRBN 2 hours Emax
[7] = read-out: NanoBRET TE 293T.116 CRBN 6 hours Emax
[8] = read-out: NanoBRET TE 293T.116 CRBN 24 hours Emax

Row | HiBIT-Degradation A375.10 BRAF 24 hours IP nM [1] | DC50 [1] [nM] | Emax [1] [%] | SMILES | NanoBRET TE 293T.116 CRBN 2 hours IP nM ([2]; 2 hours incubation) | NanoBRET TE 293T.116 CRBN 6 hours IP nM ([2]; 6 hours incubation) | NanoBRET TE 293T.116 CRBN 24 hours IP nM ([2]; 24 hours incubation) | IC50 [2, 3] [nM] | IC50 [2, 4] [nM] | IC50 [2, 5] [nM] | Emax [2, 6] [%] | Emax [2, 7] [%] | Emax [2, 8] [%]
1 | *** (<= 1 μM is ***) | < 1000 | < 60 | CCN(C)S(=O)(=O)Nc1ccc(F)c(Oc2ccc3ncn([C@H]4COC5(CCN(C(=O)CN6CCC(c7ccc(N8CCC(=O)NC8=O)cc7OS(C)(=O)=O)CC6)CC5)C4)c(=O)c3c2)c1C#N [drawing 1220] |  |  |  |  |  |  |  |  | 
2 | *** (<= 1 μM is ***) | < 1000 | < 60 | CCN(C)S(=O)(=O)Nc1ccc(F)c(Oc2ccc3ncn([C@H]4COC5(CCN(C(=O)CN6CCC(c7ccc(NC8CCC(=O)NC8=O)cc7OS(C)(=O)=O)CC6)CC5)C4)c(=O)c3c2)c1C#N (stereo partly drawn) [drawing 1217] |  |  |  |  |  |  |  |  | 
3 |  |  |  | O=C1CCC(c2ccc(N3CCNCC3)c(OS(=O)(=O)F)c2)C(=O)N1 (stereo not drawn) [Compound A-36, 5-(2,6-dioxopiperidin-3-yl)-2-(piperazin-1-yl)phenyl sulfurofluoridate] | *** (<= 1 μM is ***) | *** (<= 1 μM is ***) | *** (<= 1 μM is ***) | < 1000 | < 1000 | < 1000 | < 50 | < 50 | < 50
4 |  |  |  | O=C1NC(=O)C2(Nc3ccc(S(=O)(=O)F)cc3)CC1C2 [Compound A-33, 4-((2,4-dioxo-3-azabicyclo[3.1.1]heptan-1-yl)amino)benzenesulfonyl fluoride] | ** (<10 μM and >1 μM is **) | ** (<10 μM and >1 μM is **) | ** (<10 μM and >1 μM is **) | 1000 to 10000 | 1000 to 10000 | 1000 to 10000 | < 50 | < 50 | < 50
5 |  |  |  | COc1cc(OC2CCC(=O)NC2=O)cc(OS(=O)(=O)F)c1 (stereo not drawn) [Compound A-21, 3-(3-fluorosulfonyloxy-5-methoxy-phenoxy)-2,6-dioxo-piperidine] |  | *** (<= 1 μM is ***) | ** (<10 μM and >1 μM is **) |  | < 1000 | 1000 to 10000 |  | < 50 | < 50
6 |  |  |  | CN(c1cccc(S(=O)(=O)F)c1)C1CCC(=O)NC1=O (stereo not drawn) [Compound A-11, 3-((2,6-dioxopiperidin-3-yl)(methyl)amino)benzenesulfonyl fluoride] | *** (<= 1 μM is ***) | *** (<= 1 μM is ***) | *** (<= 1 μM is ***) | < 1000 | < 1000 | < 1000 | < 50 | < 50 | < 50
7 |  |  |  | O=C1CCN(c2ccc(OS(=O)(=O)F)cc2)C(=O)N1 [Compound A-15, 4-(2,4-dioxotetrahydropyrimidin-1(2H)-yl)phenyl sulfurofluoridate] | ** (<10 μM and >1 μM is **) | ** (<10 μM and >1 μM is **) | ** (<10 μM and >1 μM is **) | > 10000 | > 10000 | 1000 to 10000 | 50 to 80 | 50 to 80 | < 50
8 |  |  |  | COc1ccc(OC2CCC(=O)NC2=O)cc1S(=O)(=O)F (stereo not drawn) [Compound A-16, 5-[(2,6-dioxo-3-piperidyl)oxy]-2-methoxy-benzenesulfonyl fluoride] | *** (<= 1 μM is ***) | *** (<= 1 μM is ***) | *** (<= 1 μM is ***) | < 1000 | < 1000 | < 1000 | < 50 | < 50 | < 50
9 |  |  |  | O=C1CCN(c2ccc(S(=O)(=O)F)cc2)C(=O)N1 [Compound A-14, 4-(2,4-dioxotetrahydropyrimidin-1(2H)-yl)benzenesulfonyl fluoride] | ** (<10 μM and >1 μM is **) | ** (<10 μM and >1 μM is **) | ** (<10 μM and >1 μM is **) | 1000 to 10000 | 1000 to 10000 | > 10000 | < 50 | < 50 | 50 to 80
10 |  |  |  | O=C1CCC(Oc2ccc(C3CCNCC3)c(S(=O)(=O)F)c2)C(=O)N1 (stereo not drawn) [Compound A-38, 5-((2,6-dioxopiperidin-3-yl)oxy)-2-(piperidin-4-yl)benzenesulfonyl fluoride] | *** (<= 1 μM is ***) | *** (<= 1 μM is ***) | *** (<= 1 μM is ***) | < 1000 | < 1000 | < 1000 | < 50 | < 50 | < 50
11 |  |  |  | O=C1CCC(c2cccc(OS(=O)(=O)F)c2)C(=O)N1 (stereo not drawn) [Compound A-23, 3-(2,6-dioxopiperidin-3-yl)phenyl sulfurofluoridate] |  | ** (<10 μM and >1 μM is **) | ** (<10 μM and >1 μM is **) |  | 1000 to 10000 | 1000 to 10000 |  | < 50 | < 50

Row | SMILES | HiBIT-Degradation A375.10 BRAF 24 hours IP nM [1] | DC50 [1] [nM] | Emax [1] [%] | NanoBRET TE 293T.116 CRBN 2 hours IP nM ([2]; 2 hours incubation) | NanoBRET TE 293T.116 CRBN 6 hours IP nM ([2]; 6 hours incubation) | NanoBRET TE 293T.116 CRBN 24 hours IP nM ([2]; 24 hours incubation) | IC50 [2, 3] [nM] | IC50 [2, 4] [nM] | IC50 [2, 5] [nM] | Emax [2, 6] [%] | Emax [2, 7] [%] | Emax [2, 8] [%]
12 | CCN(C)S(=O)(=O)Nc1ccc(F)c(Oc2ccc3ncn([C@H]4COC5(CCN(C(=O)CN6CCC(c7ccc(OC8CCC(=O)NC8=O)cc7S(=O)(=O)F)CC6)CC5)C4)c(=O)c3c2)c1C#N (stereo partly drawn) [drawing 1225] | ** (<10 μM and >1 μM is **) | > 10000 | 60 to 95 |  |  |  |  |  |  |  |  | 
